Measurements as given in the supplement of paper PMC10307832.

Experiments:
Experiment in all cases: relative viability (nuclei count vs DMSO), 5 days (fraction); higher = more cells survive
Ispinesib + Crizotinib = compound: Cc1ccc(C(=O)N(CCCN)[C@@H](c2nc3cc(Cl)ccc3c(=O)n2Cc2ccccc2)C(C)C)cc1 [Ispinesib] + C[C@@H](Oc1cc(-c2cnn(C3CCNCC3)c2)cnc1N)c1c(Cl)ccc(F)c1Cl [Crizotinib] (partner 1 µM)
Summary of the method: (§1)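 Relative viability is defined as nuclei in treated wells over nuclei in vehicle wells. Duplicate plates were run and medians reported. Lung cancer cell lines in 1536-well plates were dosed by pin tool one day after seeding, with one drug or with a fixed anchor-drug dose plus five library-drug doses (not always all listed) in √10 steps, and nuclei were counted after 5 days.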

Ispinesib + Luminespib = compound: Cc1ccc(C(=O)N(CCCN)[C@@H](c2nc3cc(Cl)ccc3c(=O)n2Cc2ccccc2)C(C)C)cc1 [Ispinesib] + CCNC(=O)c1noc(-c2cc(C(C)C)c(O)cc2O)c1-c1ccc(CN2CCOCC2)cc1 [Luminespib] (partner 0.01 µM)
Summary of the method: as §1

Linsitinib + Dasatinib = compound: C[C@]1(O)C[C@@H](c2nc(-c3ccc4ccc(-c5ccccc5)nc4c3)c3c(N)nccn32)C1 [Linsitinib] + Cc1nc(Nc2ncc(C(=O)Nc3c(C)cccc3Cl)s2)cc(N2CCN(CCO)CC2)n1 [Dasatinib] (partner 0.075 µM)
Summary of the method: as §1

Linsitinib + Pemetrexed = compound: C[C@]1(O)C[C@@H](c2nc(-c3ccc4ccc(-c5ccccc5)nc4c3)c3c(N)nccn32)C1 [Linsitinib] + Nc1nc2[nH]cc(CCc3ccc(C(=O)N[C@@H](CCC(=O)O)C(=O)O)cc3)c2c(=O)[nH]1 [Pemetrexed] (partner 0.2 µM)
Summary of the method: as §1

LCLC-97TM1 showed a relative viability (Ispinesib + Crizotinib; first compound 0.001 µM) of 0.291, a relative viability (Ispinesib + Crizotinib; first compound 0.003162 µM) of 0.381 and a relative viability (Ispinesib + Crizotinib; first compound 0.01 µM) of 0.508. It also gave a relative viability (Ispinesib + Crizotinib; first compound 0.03162 µM) of 0.236, a relative viability (Ispinesib + Crizotinib; first compound 0.1 µM) of 0.175 and a relative viability (Ispinesib + Luminespib; first compound 0.001 µM) of 0.781. It also gave a relative viability (Ispinesib + Luminespib; first compound 0.003162 µM) of 0.765, a relative viability (Ispinesib + Luminespib; first compound 0.01 µM) of 0.886 and a relative viability (Ispinesib + Luminespib; first compound 0.03162 µM) of 0.807. It also gave a relative viability (Ispinesib + Luminespib; first compound 0.1 µM) of 0.487, a relative viability (Linsitinib + Dasatinib; first compound 0.01 µM) of 0.842 and a relative viability (Linsitinib + Dasatinib; first compound 0.03162 µM) of 0.64. The relative viability (Linsitinib + Dasatinib; first compound 0.1 µM) was 0.842, the relative viability (Linsitinib + Dasatinib; first compound 0.3162 µM) was 0.602 and the relative viability (Linsitinib + Dasatinib; first compound 1 µM) was 0.614. It also gave a relative viability (Linsitinib + Pemetrexed; first compound 0.01 µM) of 0.157, a relative viability (Linsitinib + Pemetrexed; first compound 0.03162 µM) of 0.159 and a relative viability (Linsitinib + Pemetrexed; first compound 0.1 µM) of 0.188. It also gave a relative viability (Linsitinib + Pemetrexed; first compound 0.3162 µM) of 0.124 and a relative viability (Linsitinib + Pemetrexed; first compound 1 µM) of 0.157.
In the case of NCI-H1915, the relative viability (Ispinesib + Crizotinib; first compound 0.001 µM) is reported as 0.972, the relative viability (Ispinesib + Crizotinib; first compound 0.003162 µM) is reported as 0.675 and the relative viability (Ispinesib + Crizotinib; first compound 0.01 µM) is reported as 0.926. For the same cell line, the relative viability (Ispinesib + Crizotinib; first compound 0.03162 µM) was 0.842, the relative viability (Ispinesib + Crizotinib; first compound 0.1 µM) was 0.432 and the relative viability (Ispinesib + Luminespib; first compound 0.001 µM) was 0.979. It also gave a relative viability (Ispinesib + Luminespib; first compound 0.003162 µM) of 0.987, a relative viability (Ispinesib + Luminespib; first compound 0.01 µM) of 1.13 and a relative viability (Ispinesib + Luminespib; first compound 0.03162 µM) of 0.706. The relative viability (Ispinesib + Luminespib; first compound 0.1 µM) was 0.385, the relative viability (Linsitinib + Dasatinib; first compound 0.01 µM) was 0.306 and the relative viability (Linsitinib + Dasatinib; first compound 0.03162 µM) was 0.351. It also gave a relative viability (Linsitinib + Dasatinib; first compound 0.1 µM) of 0.299, a relative viability (Linsitinib + Dasatinib; first compound 0.3162 µM) of 0.331 and a relative viability (Linsitinib + Dasatinib; first compound 1 µM) of 0.234. For the same cell line, the relative viability (Linsitinib + Pemetrexed; first compound 0.01 µM) was 0.558, the relative viability (Linsitinib + Pemetrexed; first compound 0.03162 µM) was 0.291 and the relative viability (Linsitinib + Pemetrexed; first compound 0.1 µM) was 0.495. For the same cell line, the relative viability (Linsitinib + Pemetrexed; first compound 0.3162 µM) was 0.588 and the relative viability (Linsitinib + Pemetrexed; first compound 1 µM) was 0.486.
Work on NCI-H3122 yielded a relative viability (Ispinesib + Crizotinib; first compound 0.001 µM) of 0.28, a relative viability (Ispinesib + Crizotinib; first compound 0.003162 µM) of 0.27 and a relative viability (Ispinesib + Crizotinib; first compound 0.01 µM) of 0.274. The relative viability (Ispinesib + Crizotinib; first compound 0.03162 µM) was 0.314, the relative viability (Ispinesib + Crizotinib; first compound 0.1 µM) was 0.202 and the relative viability (Ispinesib + Luminespib; first compound 0.001 µM) was 0.105. For the same cell line, the relative viability (Ispinesib + Luminespib; first compound 0.003162 µM) was 0.12, the relative viability (Ispinesib + Luminespib; first compound 0.01 µM) was 0.0892 and the relative viability (Ispinesib + Luminespib; first compound 0.03162 µM) was 0.0855. It also gave a relative viability (Ispinesib + Luminespib; first compound 0.1 µM) of 0.0889, a relative viability (Linsitinib + Dasatinib; first compound 0.01 µM) of 0.846 and a relative viability (Linsitinib + Dasatinib; first compound 0.03162 µM) of 0.808. For the same cell line, the relative viability (Linsitinib + Dasatinib; first compound 0.1 µM) was 0.765, the relative viability (Linsitinib + Dasatinib; first compound 0.3162 µM) was 0.218 and the relative viability (Linsitinib + Dasatinib; first compound 1 µM) was 0.514. The relative viability (Linsitinib + Pemetrexed; first compound 0.01 µM) was 0.18, the relative viability (Linsitinib + Pemetrexed; first compound 0.03162 µM) was 0.177 and the relative viability (Linsitinib + Pemetrexed; first compound 0.1 µM) was 0.212. It also gave a relative viability (Linsitinib + Pemetrexed; first compound 0.3162 µM) of 0.184 and a relative viability (Linsitinib + Pemetrexed; first compound 1 µM) of 0.196.
With NCI-H1650 the relative viability (Ispinesib + Crizotinib; first compound 0.001 µM) was 0.91, the relative viability (Ispinesib + Crizotinib; first compound 0.003162 µM) was 1.05 and the relative viability (Ispinesib + Crizotinib; first compound 0.01 µM) was 0.769. The relative viability (Ispinesib + Crizotinib; first compound 0.03162 µM) was 0.223, the relative viability (Ispinesib + Crizotinib; first compound 0.1 µM) was 0.325 and the relative viability (Ispinesib + Luminespib; first compound 0.001 µM) was 0.182. The relative viability (Ispinesib + Luminespib; first compound 0.003162 µM) was 0.185, the relative viability (Ispinesib + Luminespib; first compound 0.01 µM) was 0.217 and the relative viability (Ispinesib + Luminespib; first compound 0.03162 µM) was 0.181. The relative viability (Ispinesib + Luminespib; first compound 0.1 µM) was 0.198, the relative viability (Linsitinib + Dasatinib; first compound 0.01 µM) was 0.291 and the relative viability (Linsitinib + Dasatinib; first compound 0.03162 µM) was 0.293. It also gave a relative viability (Linsitinib + Dasatinib; first compound 0.1 µM) of 0.355, a relative viability (Linsitinib + Dasatinib; first compound 0.3162 µM) of 0.258 and a relative viability (Linsitinib + Dasatinib; first compound 1 µM) of 0.241. It also gave a relative viability (Linsitinib + Pemetrexed; first compound 0.01 µM) of 0.301, a relative viability (Linsitinib + Pemetrexed; first compound 0.03162 µM) of 0.279 and a relative viability (Linsitinib + Pemetrexed; first compound 0.1 µM) of 0.379. The relative viability (Linsitinib + Pemetrexed; first compound 0.3162 µM) was 0.334 and the relative viability (Linsitinib + Pemetrexed; first compound 1 µM) was 0.308.
Cell Line NCI-H1993 has a relative viability (Ispinesib + Crizotinib; first compound 0.001 µM) of 0.837, a relative viability (Ispinesib + Crizotinib; first compound 0.003162 µM) of 0.914 and a relative viability (Ispinesib + Crizotinib; first compound 0.01 µM) of 0.874. It also gave a relative viability (Ispinesib + Crizotinib; first compound 0.03162 µM) of 0.891, a relative viability (Ispinesib + Crizotinib; first compound 0.1 µM) of 0.661 and a relative viability (Ispinesib + Luminespib; first compound 0.001 µM) of 0.801. The relative viability (Ispinesib + Luminespib; first compound 0.003162 µM) was 0.45, the relative viability (Ispinesib + Luminespib; first compound 0.01 µM) was 1.01 and the relative viability (Ispinesib + Luminespib; first compound 0.03162 µM) was 0.821. It also gave a relative viability (Ispinesib + Luminespib; first compound 0.1 µM) of 0.634, a relative viability (Linsitinib + Dasatinib; first compound 0.01 µM) of 0.645 and a relative viability (Linsitinib + Dasatinib; first compound 0.03162 µM) of 0.584. For the same cell line, the relative viability (Linsitinib + Dasatinib; first compound 0.1 µM) was 0.509, the relative viability (Linsitinib + Dasatinib; first compound 0.3162 µM) was 0.738 and the relative viability (Linsitinib + Dasatinib; first compound 1 µM) was 0.475. For the same cell line, the relative viability (Linsitinib + Pemetrexed; first compound 0.01 µM) was 0.59, the relative viability (Linsitinib + Pemetrexed; first compound 0.03162 µM) was 0.621 and the relative viability (Linsitinib + Pemetrexed; first compound 0.1 µM) was 0.565. For the same cell line, the relative viability (Linsitinib + Pemetrexed; first compound 0.3162 µM) was 0.449 and the relative viability (Linsitinib + Pemetrexed; first compound 1 µM) was 0.404.
NCI-H2405 showed a relative viability (Ispinesib + Crizotinib; first compound 0.001 µM) of 0.846, a relative viability (Ispinesib + Crizotinib; first compound 0.003162 µM) of 0.859 and a relative viability (Ispinesib + Crizotinib; first compound 0.01 µM) of 0.919. For the same cell line, the relative viability (Ispinesib + Crizotinib; first compound 0.03162 µM) was 0.835, the relative viability (Ispinesib + Crizotinib; first compound 0.1 µM) was 0.406 and the relative viability (Ispinesib + Luminespib; first compound 0.001 µM) was 0.651. The relative viability (Ispinesib + Luminespib; first compound 0.003162 µM) was 0.733, the relative viability (Ispinesib + Luminespib; first compound 0.01 µM) was 0.677 and the relative viability (Ispinesib + Luminespib; first compound 0.03162 µM) was 0.637. For the same cell line, the relative viability (Ispinesib + Luminespib; first compound 0.1 µM) was 0.52, the relative viability (Linsitinib + Dasatinib; first compound 0.01 µM) was 0.189 and the relative viability (Linsitinib + Dasatinib; first compound 0.03162 µM) was 0.207. The relative viability (Linsitinib + Dasatinib; first compound 0.1 µM) was 0.202, the relative viability (Linsitinib + Dasatinib; first compound 0.3162 µM) was 0.34 and the relative viability (Linsitinib + Dasatinib; first compound 1 µM) was 0.18. For the same cell line, the relative viability (Linsitinib + Pemetrexed; first compound 0.01 µM) was 1.08, the relative viability (Linsitinib + Pemetrexed; first compound 0.03162 µM) was 1.09 and the relative viability (Linsitinib + Pemetrexed; first compound 0.1 µM) was 1.06. The relative viability (Linsitinib + Pemetrexed; first compound 0.3162 µM) was 0.787 and the relative viability (Linsitinib + Pemetrexed; first compound 1 µM) was 0.762.
Work on NCI-H661 yielded a relative viability (Ispinesib + Crizotinib; first compound 0.001 µM) of 1.02, a relative viability (Ispinesib + Crizotinib; first compound 0.01 µM) of 1.04 and a relative viability (Ispinesib + Crizotinib; first compound 0.03162 µM) of 0.736. The relative viability (Ispinesib + Crizotinib; first compound 0.1 µM) was 0.376, the relative viability (Ispinesib + Luminespib; first compound 0.001 µM) was 0.926 and the relative viability (Ispinesib + Luminespib; first compound 0.003162 µM) was 0.913. It also gave a relative viability (Ispinesib + Luminespib; first compound 0.01 µM) of 0.921, a relative viability (Ispinesib + Luminespib; first compound 0.03162 µM) of 0.586 and a relative viability (Ispinesib + Luminespib; first compound 0.1 µM) of 0.224. It also gave a relative viability (Linsitinib + Dasatinib; first compound 0.01 µM) of 0.899, a relative viability (Linsitinib + Dasatinib; first compound 0.03162 µM) of 0.815 and a relative viability (Linsitinib + Dasatinib; first compound 0.1 µM) of 0.946. For the same cell line, the relative viability (Linsitinib + Dasatinib; first compound 0.3162 µM) was 0.722, the relative viability (Linsitinib + Dasatinib; first compound 1 µM) was 0.768 and the relative viability (Linsitinib + Pemetrexed; first compound 0.01 µM) was 0.904. For the same cell line, the relative viability (Linsitinib + Pemetrexed; first compound 0.03162 µM) was 0.738, the relative viability (Linsitinib + Pemetrexed; first compound 0.1 µM) was 0.9 and the relative viability (Linsitinib + Pemetrexed; first compound 0.3162 µM) was 0.935. For the same cell line, the relative viability (Linsitinib + Pemetrexed; first compound 1 µM) was 0.895.
